Reference: ChEMBL document CHEMBL5543140 (J Med Chem, 2024)
The source made the active and inactive calls. The rule behind the calls is not given here.

How the values were obtained:
[1] = test system: Mus musculus; experiment: Induction of neuroplasticity in C57BL/6J mouse assessed as increase in Homer1 mRNA expression in brain frontal cortex at 0.3 mg/kg, sc single dose by RT-PCR analysis; assay type: functional, organism-based
[2] = Cmax in male Sprague-Dawley rat CSF at 1 mg/kg, iv measured upto 8 hrs by LC-MS/MS analysis; assay type: ADME, organism-based, Cerebrospinal fluid
[3] = Clearance in male Sprague-Dawley rat plasma at 1 mg/kg, iv measured upto 8 hrs by LC-MS/MS analysis; assay type: ADME, organism-based
[4] = target: 5-hydroxytryptamine receptor 2B (Homo sapiens, UniProt P41595); experiment: Agonist activity at human 5-HT2B receptor expressed in CHO cells assessed as IP2 production measured after 30 mins incubation by HTRF assay; assay type: functional, cell-based
[5] = target: T1, 5-hydroxytryptamine receptor 2C (Homo sapiens, UniProt P28335); experiment: Agonist activity at human 5-HT2C receptor expressed in HEK293 cells assessed as IP2 production measured after 30 mins incubation by HTRF assay; assay type: functional, cell-based
T1 sequence (P28335 whole entry): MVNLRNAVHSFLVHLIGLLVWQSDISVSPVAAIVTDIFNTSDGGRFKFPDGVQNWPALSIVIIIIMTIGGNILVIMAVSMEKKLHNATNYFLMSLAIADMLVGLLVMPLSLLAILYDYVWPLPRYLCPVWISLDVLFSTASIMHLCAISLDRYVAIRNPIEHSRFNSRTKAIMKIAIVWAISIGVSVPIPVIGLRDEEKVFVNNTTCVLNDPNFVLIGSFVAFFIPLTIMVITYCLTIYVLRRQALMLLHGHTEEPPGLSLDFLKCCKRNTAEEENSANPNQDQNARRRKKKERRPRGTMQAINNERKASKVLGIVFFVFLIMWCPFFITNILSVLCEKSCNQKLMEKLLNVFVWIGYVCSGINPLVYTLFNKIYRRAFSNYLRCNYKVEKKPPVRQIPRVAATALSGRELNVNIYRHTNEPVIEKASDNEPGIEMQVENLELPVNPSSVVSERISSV

[6] = Ex vivo binding in C57BL/6J mouse brain frontal cortex assessed as specific binding [3H]Cimbi-36 at 1 mg/kg, sc measured after 5 mins by liquid scintillation counting analysis (reference value: 1092 +/- 53); assay type: functional
[7] = Clearance in beagle dog at 0.4 mg/kg, iv measured upto 24 hrs; assay type: ADME, organism-based, Canis lupus familiaris; conditions: in vivo
[8] = AUCinf in beagle dog at 2 mg/kg, po measured upto 24 hrs; assay type: ADME, organism-based, Canis lupus familiaris; conditions: in vivo
[9] = Metabolic stability in human liver microsomes assessed as half life at 1 uM incubated for 120 mins in presence of NADPH; assay type: ADME, Microsome
[10] = test system: Mus musculus; experiment: Psychedelic effect in C57BL/6J mouse assessed as induction of 5-HT2A receptor dependent head-twitch responses by visual observation at 3 mg/kg, sc in presence of ketanserin 1 mg/kg, sc measured after 24 hrs; assay type: functional, organism-based
[11] = Half life in Wistar rat brain at 1 mg/kg, iv measured upto 48 hrs; assay type: ADME, organism-based
[12] = AUCinf in Wistar rat brain at 5 mg/kg, po measured upto 48 hrs; assay type: ADME, organism-based
[13] = Ex vivo binding in C57BL/6J mouse brain frontal cortex assessed as inhibition of [3H]Cimbi-36 binding at 1 mg/kg, sc measured after 15 mins by liquid scintillation counting analysis (reference value: 0%); assay type: functional; conditions: 0.25 h
[14] = Tmax in Wistar rat plasma at 5 mg/kg, po measured upto 48 hrs; assay type: ADME, organism-based
[15] = test system: Mus musculus; experiment: Psychedelic effect in C57BL/6J mouse assessed as maximal number of 5-HT2A receptor dependent head-twitch responses by visual observation at 1 mg/kg, sc (reference value: 3); assay type: functional
[16] = Tmax in Wistar rat brain at 1 mg/kg, iv measured upto 48 hrs; assay type: ADME, organism-based
[17] = test system: Hippocampus; experiment: Induction of neuroplasticity in C57BL/6J mouse assessed as increase in CREB1 mRNA expression in brain hippocampus at 3 mg/kg, sc single dose by RT-PCR analysis; assay type: functional, organism-based
[18] = AUCinf in male Sprague-Dawley rat brain at 1 mg/kg, iv measured upto 8 hrs by LC-MS/MS analysis; assay type: ADME, organism-based
[19] = Drug metabolism in rat hepatocytes assessed as formation of sulfoxide with N-acetylation/0-glucuronidations metabolites at 10 uM by HRAMS analysis; assay type: ADME, cell-based, Hepatocyte

5-hydroxytryptamine receptor 2B, sequence (P41595 whole entry): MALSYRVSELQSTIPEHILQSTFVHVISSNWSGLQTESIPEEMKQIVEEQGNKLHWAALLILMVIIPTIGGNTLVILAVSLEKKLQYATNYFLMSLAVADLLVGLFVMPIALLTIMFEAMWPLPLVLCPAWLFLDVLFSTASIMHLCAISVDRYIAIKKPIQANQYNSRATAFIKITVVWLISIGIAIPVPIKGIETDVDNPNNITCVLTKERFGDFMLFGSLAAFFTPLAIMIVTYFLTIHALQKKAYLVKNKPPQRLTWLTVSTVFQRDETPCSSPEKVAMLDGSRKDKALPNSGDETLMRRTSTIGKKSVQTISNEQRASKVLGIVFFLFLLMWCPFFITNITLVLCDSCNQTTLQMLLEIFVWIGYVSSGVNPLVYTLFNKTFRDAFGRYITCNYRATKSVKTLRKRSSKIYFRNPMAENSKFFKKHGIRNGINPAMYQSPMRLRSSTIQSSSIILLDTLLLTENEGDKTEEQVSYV

Question: With COc1cc([Se]C(F)(F)F)c(OC)cc1CCN.Cl as the compound, how does the Activity [1] read?
Answer: Active

Question: What about the Cmax [2] of the same compound?
Answer: 48.7 ng/mL

Question: And the clearance [3]?
Answer: 79.5 mL/min/kg

Question: What about the EC50 [4] of the same compound?
Answer: 88 nM

Question: And the EC50 [5]?
Answer: 92 nM

Question: What about the Activity [6] of the same compound?
Answer: 947

Question: What about the clearance [7] of the same compound?
Answer: 15.8 mL/min/kg

Question: What about the AUC(0-inf) [8] of the same compound?
Answer: 2970 ng·h/mL

Question: And the half-life at 1 µM [9]?
Answer: > 120 min

Question: What about the Activity [10] of the same compound?
Answer: inactive

Question: And the half-life [11]?
Answer: 146 min

Question: What about the AUC(0-inf) [12] of the same compound?
Answer: 2880 ng·h/mL

Question: And the inhibition in vivo at 1 mg/kg [13]?
Answer: 11%

Question: And the Tmax [14]?
Answer: 30 min

Question: What about the Activity [15] of the same compound?
Answer: 17

Question: What about the Tmax [16] of the same compound?
Answer: 30 min

Question: And the Activity [17]?
Answer: inactive

Question: And the AUC(0-inf) [18]?
Answer: 3280 ng·h/mL

Question: What about the Drug metabolism [19] of the same compound?
Answer: Metabolite_Detected
